What all share (assay type): functional, cell-based
The test system of one test is Huh-7. The test is described as follows: Cytotoxicity against human Huh-7 cells assessed as cell growth inhibition incubated for 72 hrs by SRB assay. The conditions noted are these: for IC50: Huh-7, 72 h.
A further test deals with MCF7. The test is described as follows: Cytotoxicity against human MCF7 cells assessed as cell growth inhibition incubated for 72 hrs by SRB assay. Particulars: for IC50: MCF7, 72 h.
The test system of a further test is HCT-116. The test is described as follows: Cytotoxicity against human HCT-116 cells assessed as cell growth inhibition incubated for 72 hrs by SRB assay. Particulars: for IC50: HCT-116, 72 h.
The test system of a further test is SNU-398. Kind of test: Cytotoxicity against human SNU-398 cells assessed as cell growth inhibition incubated for 72 hrs by SRB assay. Particulars: SNU-398, 72 h.
Another test relates to SNU-387. The test is described as follows: Cytotoxicity against human SNU-387 cells assessed as cell growth inhibition incubated for 72 hrs by SRB assay. Particulars: SNU-387, 72 h.
Another test has as its system SNU-423. Kind of test: Cytotoxicity against human SNU-423 cells assessed as cell growth inhibition incubated for 72 hrs by SRB assay. The conditions noted are these: SNU-423, 72 h.
A further test has as its system Mahlavu. The test is described as follows: Cytotoxicity against human Mahlavu cells assessed as cell growth inhibition incubated for 72 hrs by SRB assay.
The subject of the next test is HepG2. Kind of test: Cytotoxicity against human HepG2 cells assessed as cell growth inhibition incubated for 72 hrs by SRB assay. The conditions noted are these: HepG2, 72 h.
The subject of another test is SNU-475. The test is described as follows: Cytotoxicity against human SNU-475 cells assessed as cell growth inhibition by SRB assay.
A further test concerns SNU-449. Kind of test: Cytotoxicity against human SNU-449 cells assessed as cell growth inhibition incubated for 72 hrs by SRB assay. The conditions noted are these: SNU-449, 72 h.
The subject of another test is Hep 3B2. The test is described as follows: Cytotoxicity against human Hep3B cells assessed as cell growth inhibition incubated for 72 hrs by SRB assay.
The nature of test [1]: Cytotoxicity against human FOCUS cells assessed as cell growth inhibition incubated for 72 hrs by SRB assay.
Another test concerns PLC. The test is described as follows: Cytotoxicity against human PLC cells assessed as cell growth inhibition incubated for 72 hrs by SRB assay.
For the next test, the system named is SNU-182. The test is described as follows: Cytotoxicity against human SNU-182 cells assessed as cell growth inhibition incubated for 72 hrs by SRB assay. The conditions noted are these: SNU-182, 72 h.

Calls of active or inactive are those of the source. No cut-off for these calls is given here.

As to `Cc1ccc(-c2nc3c(N4CCN(c5ccc(C)cc5)CC4)ncnc3n2C2CCCC2)cc1`, the concentration for half-maximal inhibition (IC50) in the test on Huh-7 was 17.4 µM; in the test with MCF7, 47.5 µM; in the test on HCT-116 it was 33.4 µM.
With `FC(F)(F)c1ccc(-c2nc3c(N4CCN(c5ccc(Cl)cc5)CC4)ncnc3n2C2CCCC2)cc1`, the IC50 in the test with Huh-7 came out at 61.4 µM; in the test on MCF7 it was 57.9 µM. For the same molecule, in the test with HCT-116, the outcome was inactive.
For `Cc1ccc(N2CCN(c3ncnc4c3nc(-c3ccc(C(F)(F)F)cc3)n4C3CCCC3)CC2)cc1`, the concentration for half-maximal inhibition (IC50) in the test on Huh-7 is 16.1 µM; with MCF7, 30.1 µM; with HCT-116 it was 46.2 µM.
Take `FC(F)(F)c1ccc(-c2nc3c(N4CCN(c5ccc(C(F)(F)F)cc5)CC4)ncnc3n2C2CCCC2)cc1`: the IC50 was determined as 9.3 µM with Huh-7; 19 µM in the test with SNU-398; 98.7 µM with SNU-387; 6.1 µM in the test with MCF7; 24.9 µM in the test on SNU-423; 19.8 µM in the test with Mahlavu. Besides, the IC50 in the test with HepG2 is 6.6 µM; in the test with SNU-475, 17 µM; with SNU-449, 60.6 µM; in the test with Hep 3B2, 10.3 µM; in test [1], 4.5 µM; in the test on PLC, 99.1 µM. For the same molecule, the results for the IC50 in the test with HCT-116 and in the test with SNU-182 were 10.8 µM and 16.4 µM, respectively.
As for `Cc1ccc(-c2nc3c(N4CCN(c5ccccc5)CC4)ncnc3n2C2CCCC2)cc1`, the IC50 in the test with Huh-7 turned out to be 12.9 µM; in the test with MCF7, 21.4 µM; in the test with HCT-116 it was 18.8 µM.
For the molecule `Nc1nc(Cl)nc2c1ncn2[C@H]1C[C@H](O)[C@@H](CO)O1` [CLADRIBINE], the IC50 is 0.9 µM in the test on Huh-7; under 0.1 µM in the test on SNU-398; 2.4 µM in the test with MCF7; under 0.1 µM in the test on Mahlavu; under 0.1 µM in [1]; under 0.1 µM in the test on HCT-116.
For the molecule `Cc1ccc(-c2nc3c(N4CCN(c5ccc(Cl)c(Cl)c5)CC4)ncnc3n2C2CCCC2)cc1`, the result in the test with Huh-7, with MCF7 and in the test with HCT-116 was inactive.
Take `Nc1nc(F)nc2c1ncn2[C@@H]1O[C@H](CO)[C@@H](O)[C@@H]1O` [FLUDARABINE]: the IC50 with Huh-7 is 28.4 µM.
As to `COc1ccc(-c2nc3c(N4CCN(c5ccccc5)CC4)ncnc3n2C2CCCC2)cc1`, the IC50 in the test with Huh-7 was determined as 57.1 µM; in the test on HCT-116, 42.3 µM. Further, the result in the test on MCF7 was inactive.
For `Cc1ccc(N2CCN(c3ncnc4c3nc(-c3ccc(Cl)cc3)n4C3CCCC3)CC2)cc1`, the IC50 in the test on Huh-7 was determined as 15.7 µM; in the test on MCF7, 21.6 µM; in the test with HCT-116, 6.5 µM.
`Fc1ccc(-c2nc3c(N4CCN(c5ccc(Cl)cc5)CC4)ncnc3n2C2CCCC2)cc1`: the IC50 in the test on Huh-7 is 20.2 µM; in the test on HCT-116, 51.4 µM. The outcome with MCF7 was inactive.
For the molecule `COc1ccc(-c2nc3c(N4CCN(c5ccc(C)cc5)CC4)ncnc3n2C2CCCC2)cc1`, the outcome in the test with Huh-7 and with HCT-116 was inactive. Further, in the test with MCF7, the IC50 came out at 58.4 µM.
As for `Cc1ccc(N2CCN(c3ncnc4c3nc(-c3ccc(Br)cc3)n4C3CCCC3)CC2)cc1`, the IC50 in the test with Huh-7 amounted to 28.4 µM; in the test on MCF7, 24.8 µM; in the test with HCT-116, 52.3 µM.
For the molecule `FC(F)(F)c1ccc(-c2nc3c(N4CCN(c5ccccc5)CC4)ncnc3n2C2CCCC2)cc1`, the figures for the IC50 in the test on Huh-7, in the test on MCF7 and in the test with HCT-116 were 7.6 µM, 25.9 µM and 25.3 µM, respectively.
`Brc1ccc(-c2nc3c(N4CCN(c5ccccc5)CC4)ncnc3n2C2CCCC2)cc1`: the IC50 in the test on Huh-7 came to 11.1 µM; in the test on MCF7, 15 µM; with HCT-116, 28.8 µM.
For `FC(F)(F)c1ccc(-c2nc3c(N4CCN(c5ccc(Cl)c(Cl)c5)CC4)ncnc3n2C2CCCC2)cc1`, the IC50 is 35.1 µM in the test on Huh-7 and 7.2 µM in the test on MCF7. In addition, in the test on HCT-116, the result was inactive.
As to `O=c1[nH]cc(F)c(=O)[nH]1` [FLUOROURACIL], in the test with HCT-116, the IC50 is 4.1 µM.
On to `Cc1ccc(N2CCN(c3ncnc4c3nc(-c3ccc(F)cc3)n4C3CCCC3)CC2)cc1`, for which the IC50 with Huh-7 turned out to be 20.8 µM; in the test on HCT-116 it was 26.1 µM. Further, in the test on MCF7, the result was inactive.
In the case of `COc1ccc(-c2nc3c(N4CCN(c5ccc(Cl)c(Cl)c5)CC4)ncnc3n2C2CCCC2)cc1`, the IC50 in the test with Huh-7 came out at 7.4 µM; in the test on MCF7, 30.6 µM; with HCT-116, 33.6 µM.
For the molecule `Fc1ccc(-c2nc3c(N4CCN(c5ccc(Cl)c(Cl)c5)CC4)ncnc3n2C2CCCC2)cc1`, the results for the IC50 in the test with Huh-7 and in the test with HCT-116 were 30 µM and 50.6 µM, respectively. Further, the outcome with MCF7 was inactive.
Turning to `Clc1ccc(-c2nc3c(N4CCN(c5ccc(Cl)cc5)CC4)ncnc3n2C2CCCC2)cc1`, the IC50 was 39 µM in the test with Huh-7, 35.8 µM in the test with MCF7 and 64.9 µM in the test on HCT-116.
The matching figures for `Fc1ccc(-c2nc3c(N4CCN(c5ccccc5)CC4)ncnc3n2C2CCCC2)cc1`: 11.4 µM, 68.2 µM and 13.7 µM.
`Clc1ccc(N2CCN(c3ncnc4c3nc(-c3ccc(Br)cc3)n4C3CCCC3)CC2)cc1Cl`: the outcome in the test on Huh-7 and in the test with HCT-116 was inactive. Further, the IC50 in the test on MCF7 came out at 60.7 µM.
Take `FC(F)(F)c1ccc(N2CCN(c3ncnc4c3nc(-c3ccc(Cl)cc3)n4C3CCCC3)CC2)cc1`: the results for the IC50 in the test with Huh-7 and in the test on MCF7 were 19.4 µM and 30.3 µM, respectively. The outcome with HCT-116 was inactive.
Turning to `Clc1ccc(N2CCN(c3ncnc4c3nc(-c3ccc(Br)cc3)n4C3CCCC3)CC2)cc1`, the outcome with Huh-7 and with HCT-116 was inactive. For the same molecule, the IC50 with MCF7 was 51.6 µM.
On to `Clc1ccc(-c2nc3c(N4CCN(c5ccccc5)CC4)ncnc3n2C2CCCC2)cc1`, for which the IC50 with Huh-7 was found to be 23.2 µM; in the test with MCF7 it was 19.8 µM; in the test on HCT-116, 5.8 µM.
Regarding `COc1ccc(-c2nc3c(N4CCN(c5ccc(C(F)(F)F)cc5)CC4)ncnc3n2C2CCCC2)cc1`, the IC50 with Huh-7 was 9.8 µM. Besides, the outcome in the test with MCF7 and in the test with HCT-116 was inactive.
On to `Cc1ccc(-c2nc3c(N4CCN(c5ccc(Cl)cc5)CC4)ncnc3n2C2CCCC2)cc1`, for which, in the test with Huh-7, the IC50 is 61.8 µM. Besides, the result with MCF7 and in the test on HCT-116 was inactive.
Take `Clc1ccc(-c2nc3c(N4CCN(c5ccc(Cl)c(Cl)c5)CC4)ncnc3n2C2CCCC2)cc1`: the IC50 in the test on Huh-7 came out at 58.7 µM. Besides, the outcome with MCF7 and in the test on HCT-116 was inactive.
Regarding `COc1ccc(-c2nc3c(N4CCN(c5ccc(Cl)cc5)CC4)ncnc3n2C2CCCC2)cc1`, the IC50 in the test on Huh-7 is 5.5 µM; in the test with MCF7, 69.8 µM; in the test on HCT-116, 30.9 µM.
The matching figures for `Cc1ccc(-c2nc3c(N4CCN(c5ccc(C(F)(F)F)cc5)CC4)ncnc3n2C2CCCC2)cc1`: 13.1 µM, 26.2 µM and 34.3 µM.
Take `FC(F)(F)c1ccc(N2CCN(c3ncnc4c3nc(-c3ccc(Br)cc3)n4C3CCCC3)CC2)cc1`: the IC50 in the test on Huh-7 stood at 58.1 µM; in the test on MCF7, 17.4 µM; in the test on HCT-116 it was 58.5 µM.
For `Fc1ccc(-c2nc3c(N4CCN(c5ccc(C(F)(F)F)cc5)CC4)ncnc3n2C2CCCC2)cc1`, the figures for the IC50 in the test with Huh-7, in the test on MCF7 and in the test on HCT-116 were 11.4 µM, 32.4 µM and 13.5 µM, respectively.

The values are drawn from ChEMBL document CHEMBL5576049, “Synthesis and cytotoxicity of novel 6,8,9-trisubstituted purine analogs against liver cancer cells” (Bioorg Med Chem Lett, 2024).
